Assay results published in PubChem BioAssay AID743348 (Broad Institute, 2014).
The source made the active and inactive calls.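 How the source made its calls: active means AC50 for ATP loss at or below twice the top valid dose tested, with the signal falling; inconclusive means flat fit showing moderate loss, or a poor-quality fit; inactive means the rest, including rises in signal.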

Test system: not listed separately
Assay: cell viability loss in HepG2 cells – ATP luminescence, dry powder, set 10, cytotoxicity control, dose response (AID 743348)
Conditions: HepG2 viability, CellTiter-Glo ATP luminescence, 72 h; at 26 µM (top of the series)

**Q.** For `O=C(c1ccc2c(c1)OCO2)N1CCN(c2ccc(S(=O)(=O)C(F)(F)F)cc2)CC1`, which activity change, negative = cytotoxicity is on record?
**A.** The activity change, negative = cytotoxicity was 24.8% (inactive).

**Q.** For `N#Cc1ccc(N2CCN(C(=O)c3ccc4c(c3)OCO4)CC2)cc1`, which activity change, negative = cytotoxicity is on record?
**A.** Its activity change, negative = cytotoxicity is -5.11% (inactive).

**Q.** With `CC(=O)c1ccc(N2CCN(C(=O)c3ccc4c(c3)OC(C)(C)O4)CC2)cc1` as the compound, how does the activity change, negative = cytotoxicity read?
**A.** Its activity change, negative = cytotoxicity is -6.05% (inactive).

**Q.** For `CC(=O)c1ccc(N2CCN(C(=O)c3cccc4c3OCO4)CC2)cc1`, which activity change, negative = cytotoxicity is on record?
**A.** Its activity change, negative = cytotoxicity is 14.1% (inactive).

**Q.** For `COc1cc(C(=O)N2CCN(c3ccc(C(C)=O)cc3)CC2)cc2c1OCO2`, which activity change, negative = cytotoxicity is on record?
**A.** Its activity change, negative = cytotoxicity is 12% (inactive).

**Q.** Which activity change, negative = cytotoxicity does the source give for `CC(=O)c1ccc(N2CCN(C(=O)c3ccc4c(c3)OC(F)(F)O4)CC2)cc1` here?
**A.** The activity change, negative = cytotoxicity was 14.2% (inactive).

**Q.** With `CC(=O)c1ccc(N2CCN(C(=O)c3cc4c(cn3)OCO4)CC2)cc1` as the compound, how does the activity change, negative = cytotoxicity read?
**A.** The activity change, negative = cytotoxicity was -2.87% (inactive).

**Q.** For `CC(=O)c1ccc(N2CC3CC2CN3C(=O)c2ccc3c(c2)OCO3)cc1` (stereo not given), which activity change, negative = cytotoxicity is on record?
**A.** The activity change, negative = cytotoxicity was 36.6% (inactive).

**Q.** With `CC(=O)c1ccc(N2CCCN(C(=O)c3ccc4c(c3)OCO4)CC2)cc1` as the compound, how does the activity change, negative = cytotoxicity read?
**A.** Its activity change, negative = cytotoxicity is 11.7% (inactive).

**Q.** Which activity change, negative = cytotoxicity does the source give for `CC(=O)c1ccc(N2CCN(C(=O)c3ccc4ocnc4c3)CC2)cc1` here?
**A.** The activity change, negative = cytotoxicity was 10.9% (inactive).

**Q.** Which activity change, negative = cytotoxicity does the source give for `O=C(c1ccc2c(c1)OCO2)N1CCN(c2ccc(C(F)(F)F)cc2)CC1` here?
**A.** Its activity change, negative = cytotoxicity is 7.07% (inactive).

**Q.** Which activity change, negative = cytotoxicity does the source give for `COc1ccc(C(=O)N2CCN(c3ccc(C(C)=O)cc3)CC2)cc1OC` here?
**A.** The activity change, negative = cytotoxicity was 9.73% (inactive).

**Q.** For `CS(=O)(=O)c1ccc(N2CCN(C(=O)c3ccc4c(c3)OCO4)CC2)cc1`, which activity change, negative = cytotoxicity is on record?
**A.** Its activity change, negative = cytotoxicity is -7.24% (inactive).

**Q.** For `CC(=O)c1ccc(N2CCN(C(=O)c3ccc4c(c3)OCO4)CC2)cc1`, which activity change, negative = cytotoxicity is on record?
**A.** Its activity change, negative = cytotoxicity is -3.33% (inactive).

**Q.** With `CC(=O)c1ccc(N2CCN(C(=O)c3cc4c(cc3Cl)OCO4)CC2)cc1` as the compound, how does the activity change, negative = cytotoxicity read?
**A.** The activity change, negative = cytotoxicity was 28.5% (inactive).

**Q.** With `CC(=O)c1ccc(N2CCN(C(=O)c3ccc4snnc4c3)CC2)cc1` as the compound, how does the activity change, negative = cytotoxicity read?
**A.** Its activity change, negative = cytotoxicity is 19.1% (inactive).

**Q.** Which activity change, negative = cytotoxicity does the source give for `COc1cc2c(cc1C(=O)N1CCN(c3ccc(C(C)=O)cc3)CC1)OCO2` here?
**A.** The activity change, negative = cytotoxicity was 7.72% (inactive).

**Q.** For `CC(=O)c1ccc(N2CCN(C(=O)c3cc(Cl)c4c(c3)OCO4)CC2)cc1`, which activity change, negative = cytotoxicity is on record?
**A.** Its activity change, negative = cytotoxicity is 6.73% (inactive).

**Q.** With `CC(=O)c1ccc(N2CCN(C(=O)c3ccc4c(c3C)OCO4)CC2)cc1` as the compound, how does the activity change, negative = cytotoxicity read?
**A.** The activity change, negative = cytotoxicity was 0.898% (inactive).

**Q.** For `CC(=O)c1ccc(N2CCN(C(=O)c3cc4c(cc3C)OCO4)CC2)cc1`, which activity change, negative = cytotoxicity is on record?
**A.** The activity change, negative = cytotoxicity was 31.1% (inactive).

**Q.** Which activity change, negative = cytotoxicity does the source give for `CC(=O)c1ccc(N2CCN(C(=O)Nc3ccc4c(c3)OCO4)CC2)cc1` here?
**A.** Its activity change, negative = cytotoxicity is -12% (inactive).

**Q.** For `CC(=O)c1ccc(N2CCN(C(=O)c3ccc(Cl)c(Cl)c3)CC2)cc1`, which activity change, negative = cytotoxicity is on record?
**A.** The activity change, negative = cytotoxicity was 55.4% (inactive).

**Q.** Which activity change, negative = cytotoxicity does the source give for `O=C(c1ccc2c(c1)OCO2)N1CCN(c2ccc(OC(F)(F)F)cc2)CC1` here?
**A.** Its activity change, negative = cytotoxicity is -0.808% (inactive).

**Q.** With `O=C(c1ccc2c(c1)OCO2)N1CCN(c2ccc(S(=O)(=O)C(F)F)cc2)CC1` as the compound, how does the activity change, negative = cytotoxicity read?
**A.** Its activity change, negative = cytotoxicity is 27.7% (inactive).

Test system: HepG2 viability, CellTiter-Glo ATP luminescence, 72 h
Assay: as above
Conditions: not given

**Q.** Which AC50 does the source give for `CC(=O)c1ccc(N2CCN(S(=O)(=O)c3ccc4c(c3)OCO4)CC2)cc1` here?
**A.** Its AC50 is > 52 µM (inactive).
